Reference: patent US20260021132A1, “PHARMACOLOGICAL THERAPY FOR MITOCHONDRIAL DNA DEPLETION DELETIONS SYNDROME INVOLVING MUTATIONS IN THE GUK1 GENE” (The Trustees of Columbia University in the City of New York, priority 2023, published 2026)

Key:
GUK1 patient fibroblasts = assay: mtDNA content of proliferating GUK1 patient fibroblasts (quantitative Real-Time PCR, mtDNA/nDNA); assay type: cell-based, human; conditions: three different GUK1 patient proliferating fibroblasts, FIG. 3B
Method: Levels of mtDNA were measured by quantitative Real-Time PCR (in triplicate) and expressed as mtDNA/nDNA (12S/RNase P) and levels are expressed as percent relative to control fibroblast mtDNA. * indicates p<0.05. P values determined by Mann-Whitney U test. Initially, GUK1 mutant patient fibroblasts will be supplemented with dG. Based on published reports of deoxynucleoside supplementation for rescue of other models of mtDNA depletion, fibroblast culture media will be supplemented with dG at concentrations ranging from 1 μM to 400 μM (Camara, et al. 2014; Pontarin, et al. 2012; […], et al. 2003; Bulst, et al. 2012). Throughout each experiment, fibroblasts will be actively proliferating to emphasize use of the de novo dNTP synthesis pathway. The primary outcome measure will be mtDNA copy number comparing untreated and dG-supplemented fibroblasts. To complement the mtDNA results, it will be determined whether the mitochondrial dGTP concentration increases with dG supplementation by measuring mitochondrial dNTP pools. As a functional measure of mitochondrial rescue in treated fibroblasts, we will also measure OxPhos activity.

[1] = system: dGK-deficient fibroblasts; conditions: cited from earlier work
[2] = mice; cited from earlier work

## Nc1nc2c(ncn2[C@H]2C[C@H](O)[C@@H](CO)O2)c(=O)[nH]1 [dG, deoxyguanosine]
GUK1 patient fibroblasts; dG at 1 μM alone
  mtDNA as compared to untreated: increase

## O=c1[nH]cnc2c([C@@H]3N[C@H](CO)[C@@H](O)[C@H]3O)c[nH]c12 [forodesine]
[1]
  efficacy of purine supplementation: enhances the efficacy of purine supplementation
[2]
  circulating dG: can increase circulating dG
GUK1 patient fibroblasts; forodesine at 1 mM alone
  mtDNA as compared to untreated: increase
